From US6602827B1, “Herbicidal 5-chlorodifluoromethyl-1,3,4-thiadiazol-2-yl-oxyacetanilides” (Bayer Aktiengesellschaft, priority 1999, dated 2003)

How the values were obtained:
Soya = assay: Pre-emergence test/greenhouse; format: in vivo; details: 125 g of ai./ha, rated after three weeks vs untreated control, 0% = no effect, 100% = total destruction
Protocol: (§1) Pre-emergence Test Solvent: 5 parts by weight of acetone Emulsifier: 1 part by weight of alkylaryl polyglycol ether To produce a suitable preparation of active compound, 1 part by weight of active compound is mixed with the stated amount of solvent, the stated amount of emulsifier is added and the concentrate is diluted with water to the desired concentration. Seeds of the test plants are sown in normal soil. After 24 hours, the soil is sprayed with the preparation of active compound such that the particular amount of active compound desired is applied per unit area. The active compound concentration in the spray liquor is chosen so that the particular amount of active compound desired is applied in 1000 liters of water per hectare. After three weeks, the degree of damage to the plants is rated in % damage in comparison to the development of the untreated control. The figures denote: 0%=no effect (like untreated control) 100%=total destruction

Wheat = assay: Pre-emergence test/greenhouse; format: in vivo; details: 125 g of ai./ha, rated after three weeks vs untreated control, 0% = no effect, 100% = total destruction
Protocol: as §1

Setaria [1] = assay: Pre-emergence test/greenhouse; format: in vivo; details: 125 g of ai./ha, rated after three weeks vs untreated control, 0% = no effect, 100% = total destruction
Protocol: as §1

Galium [2] = assay: Pre-emergence test/greenhouse; format: in vivo; details: 125 g of ai./ha, rated after three weeks vs untreated control, 0% = no effect, 100% = total destruction
Protocol: as §1

Matricaria = assay: Pre-emergence test/greenhouse; format: in vivo; details: 125 g of ai./ha, rated after three weeks vs untreated control, 0% = no effect, 100% = total destruction
Protocol: as §1

Lolium = assay: Pre-emergence test/greenhouse; format: in vivo; details: 125 g of ai./ha, rated after three weeks vs untreated control, 0% = no effect, 100% = total destruction
Protocol: as §1

Eriochloa = assay: Pre-emergence test/greenhouse; format: in vivo; details: 125 g of ai./ha, rated after three weeks vs untreated control, 0% = no effect, 100% = total destruction
Protocol: as §1

[3] = test system: crop plants, such as soya and wheat; assay: Pre-emergence test, crop tolerance; format: in vivo; details: in words
Protocol: as §1

Setaria [4] = assay: Post-emergence test/greenhouse; format: in vivo; details: 1000 g of ai./ha, rated after three weeks vs untreated control, 0% = no effect, 100% = total destruction
Protocol: (§2) Solvent: 5 parts by weight of acetone
(§3) Emulsifier: 1 part by weight of alkylaryl polyglycol ether
(§4) To produce a suitable preparation of active compound, 1 part by weight of active compound is mixed with the stated amount of solvent, the stated amount of emulsifier is added and the concentrate is diluted with water to the desired concentration.
(§5) Test plants which have a height of 5 to 15 cm are sprayed with the preparation of active compound such that the particular amounts of active compound desired are applied per unit area. The concentration of the spray liquor is chosen so that the particular amounts of active compound desired are applied in 1000 1 of water/ha.
(§6) After three weeks, the degree of damage to the plants is rated in % damage in comparison to the development of the untreated control.
(§7) 0%=no effect (like untreated control))

Maize = assay: Post-emergence test/greenhouse; format: in vivo; details: 1000 g of ai./ha, rated after three weeks vs untreated control, 0% = no effect, 100% = total destruction
Protocol: as §2, §3, §4, §5, §6, §7

Galium [5] = assay: Post-emergence test/greenhouse; format: in vivo; details: 1000 g of ai./ha, rated after three weeks vs untreated control, 0% = no effect, 100% = total destruction
Protocol: as §2, §3, §4, §5, §6, §7

Xanthium = assay: Post-emergence test/greenhouse; format: in vivo; details: 1000 g of ai./ha, rated after three weeks vs untreated control, 0% = no effect, 100% = total destruction
Protocol: as §2, §3, §4, §5, §6, §7

[6] = test system: crop plants, such as maize; assay: Post-emergence test, crop tolerance; format: in vivo; details: in words
Protocol: as §2, §3, §4, §5, §6, §7

weeds [7] = assay: Pre-emergence test, overall activity against weeds; format: in vivo; details: in words
Protocol: as §1

weeds [8] = assay: Post-emergence test, overall activity against weeds; format: in vivo; details: in words
Protocol: as §2, §3, §4, §5, §6, §7

CC(C)N(C(=O)COc1nnc(C(F)(F)Cl)s1)c1ccc(F)cc1 [Example 1, N-i-propyl-N-(4-fluoro-phenyl)-2-(5-chlorodifluoromethyl-1,3,4-thiadiazol-2-yl-oxy)-acetamide]
degree of damage, Soya (Soya): 0% | degree of damage, Wheat (Wheat): 0% | degree of damage, Setaria (Setaria [1]): 100% | degree of damage, Galium (Galium [2]): 90% | degree of damage, Matricaria (Matricaria): 100% | degree of damage, Lolium (Lolium): 90% | degree of damage, Eriochloa (Eriochloa): 100% | melting point: 98 °C | tolerance by crop plants [3]: tolerated well | degree of damage, Setaria (Setaria [4]): 95% | degree of damage, Maize (Maize): 30% | degree of damage, Galium (Galium [5]): 95% | degree of damage, Xanthium (Xanthium): 80% | tolerance by crop plants [6]: tolerated well | activity against weeds (weeds [7]): very strong activity | activity against weeds (weeds [8]): strong activity
